Test system: rhythmic contractions of the bladder
Test: Effect on rhythmic contractions of bladder (cystometry in urethane-anesthetized rats, i.v. administration)
Type: in vivo
Details: female SD-rats under urethane anesthesia, intravenous, ascending doses in 10% PEG, relative to vehicle; for Contractile amplitude: ED30: mean amplitude of bladder contraction during 10-minute period after administration; for Contractile frequency: ED30: mean frequency of bladder contraction during 10-minute period after administration
Method: Effect on Rhythmic Contractions of Bladder This test was carried out by some modification of the method of Hedge et al. [Hedge S S. Choppin A. Bonhaus D. Briaud S. Loeb M. Moy T M. Loury D. Eglen R M., British Journal of Pharmacology. 120(8):1409-18, 1997]. Female SD-rats were subjected to abdominal midline incision under urethane anesthesia (0.6 g/kg, s.c. and i.p.), the ureters were ligated, and its kidney side was cut off. A polyethylene cannula was inserted from the urethra into the bladder and the urethra was ligated. The other end of the cannula was connected to a three way connector, to which a constant infusion pump having a 20 ml attached syringe and a pressure transducer for cystometry were also connected. A cannula for administration of a test sample was inserted into the jugular vein and a cannula for measurement of blood pressure and heart rate was inserted into the carotid artery. The intravesical pressure, blood pressure and heart rate were continuously recorded on a polygraph. Physiological saline was infused until rhythmic contractions of the bladder were observed, and after having confirmed stable rhythmic contractions of the bladder, vehicle (10% PEG) and solutions of a test sample dissolved in 10% PEG were administered intravenously in turn from its lower dose. The mean of amplitude and frequency of bladder contraction during a 10-minute period after administration were measured at each dose level, and their rates of change relative to the values obtained when the vehicle alone was administered were calculated, thereby determining ED30 values for the contractile amplitude and the contractile frequency, respectively. It is apparent from Table 1 that the compounds of the present invention depressed not only the contractile amplitude but also the contractile frequency.

SMILES: CCCc1cccc(CN2CCC(N3C(=O)Nc4ccccc4C3c3ccccc3)CC2)c1 (stereo not shown) [Example 2-1, Optically Active Form of 3-[1-(3-propylphenylmethyl)piperidin-4-yl]-4-phenyl-3,4-dihydro-2(1H)-quinazolinone]
- Contractile amplitude: ED30: 1.09 mg/kg
- Contractile frequency: ED30: 0.70 mg/kg

SMILES: Cc1cccc(CN2CCC(N3C(=O)Nc4ccccc4C3C(C)C)CC2)n1 (single isomer, unassigned; (+)) [Example 3, (+)-4-isopropyl-3-{1-[(6-methyl-2-pyridinyl)methyl]piperidin-4-yl}-3,4-dihydro-2(1H)-quinazolinone]
- Contractile amplitude: ED30: 0.94 mg/kg
- Contractile frequency: ED30: 1.79 mg/kg

SMILES: CC(C)Oc1cccc(CN2CCC(N3C(=O)Nc4ccccc4C3c3ccccc3)CC2)c1 (stereo not shown) [Example 2-3, Optically Active Form of 3-[1-(3-isopropoxyphenylmethyl)piperidin-4-yl]-4-phenyl-3,4-dihydro-2(1H)-quinazolinone]
- Contractile amplitude: ED30: 1.10 mg/kg
- Contractile frequency: ED30: 1.54 mg/kg

SMILES: O=C1Nc2ccccc2C(c2ccccc2)N1C1CCN(Cc2cccc(OCC(F)(F)F)c2)CC1 (stereo not shown) [Example 2-4, Optically Active Form of 3-{1-[3-(2,2,2-trifluoroethoxy)phenylmethyl]piperidin-4-yl}-4-phenyl-3,4-dihydro-2(1H)-quinazolinone]
- Contractile amplitude: ED30: 1.42 mg/kg
- Contractile frequency: ED30: 1.35 mg/kg

SMILES: O=C1Nc2ccccc2C(c2ccccc2)N1C1CCN(Cc2cccc(OC(F)(F)F)c2)CC1 (single isomer, unassigned; (+)) [Example 1, (+)-3-{1-[3-(trifluoromethoxy)benzyl]piperidin-4-yl}-4-phenyl-3,4-dihydro-2(1H)-quinazolinone]
- Contractile amplitude: ED30: 1.71 mg/kg
- Contractile frequency: ED30: 1.31 mg/kg

— US7329665B2, “Quinazolinone derivative” (Dainippon Sumitomo Pharma Co., Ltd., priority 2001, dated 2008)
